# Results taken from US10188612B2, “Pharmaceutical compositions for inhalation” (VECTURA LIMITED, priority 2000, dated 2019).
# Assay: Standard dissolution test (sintered glass disc over stirred reservoir of deionised water)
# Type: physicochemical
# Conditions: FIG. 2
# Protocol: The samples were analysed in a Cecil Aquarius CE7200 ultraviolet spectrophotometer at a wavelength of 200 nm. The concentration of the samples was calculated with a previously prepared calibration graph and the concentration versus time was plotted.
# The apparatus used is shown in FIG. 1 and comprises a 195 cm^3 reservoir (1) filled with deionised water (2) and having an inlet port (3) and an outlet port (4). A sintered glass disc (5) of approximately 50 mm diameter and 3 mm depth occupies an opening at the top of the reservoir (1) and sits horizontally in contact with the water (2). The water in the reservoir is stirred by a magnetic stirrer (6).
# A known mass of approximately 1 mg of the formulation (7) to be tested is placed on the sinter and a timer is started. At various times, 1 cm^3 samples of the water are removed from the reservoir and are immediately replaced with 1 cm^3 deionised water to maintain the volume in the reservoir. The concentration of the active substance in the 1 cm^3 samples is determined by a suitable method.
compound,measurement,setting,value
C[N+]1(C)CCC(OC(=O)C(O)(c2ccccc2)C2CCCC2)C1 (centres unmarked) [glycopyrrolate],time at which the maximum concentration is achieved,,10 min
same,concentration of active substance in the reservoir at the first time point,"at 5 minutes, UV at 200 nm",greater than 10 mg/l
